Literature values as cited in publication PMC10828988, “Tuning the Softness of the Pendant Arms and the Polyazamacrocyclic Backbone to Chelate the ^203Pb/^212Pb Theranostic Pair” (Inorganic Chemistry, 2024).

Set-up: method as in doi:10.1016/0010-8545(91)80023-7
Settings: T = 25 °C, nonfunctionalized macrocycles; cited from earlier work

SMILES: C1CNCCNCCNCCN1 [cyclen, 1,4,7,10-tetrazacyclododecane]
- logK Pb^2+-macrocycle: 15.9
